Data set [1] relates to MK-801-induced memory/learning dysfunctions. The data set is described as follows: Step-through passive avoidance response test, MK-801-induced memory/learning dysfunctions. It is filed as in vivo, Wistar male rats. Here is the method:
Wistar male rats (7 weeks old) were used. […] Serotonin 5-HT 1A receptor antagonist WAY-100635 or noradrenaline a2 receptor antagonist 1-PP was dissolved in a physiological saline solution (Otsuka Pharmaceutical Co., Ltd.) and used as a test compound. As an NMDA type receptor antagonist, MK-801 hydrogen maleate (SIGMA-ALDRICH M-107) was dissolved in a physiological saline solution (Otsuka Pharmaceutical Co., Ltd.). […] For the evaluation of state-dependency of MC-801, MK-801 was administered before the training session, and a physiological saline solution was administered before the testing session instead. The dosing value thereof was 5 ml/kg for each.
The step-through type passive avoidance response test was carried out in the following manners with the use of an apparatus consisting of a light-dark box, a slide door dividing the light-dark box and a shock generator (manufactured by O'hara & Co., Ltd., PA-2030A, PA-3001A) as an experimental apparatus. Namely, on Day 1 of the experiment, after a test compound and MK-801 were administered, the rats were put into the light box of the experimental apparatus where the back of each rat was directed to the dark box. Then, 10 seconds later, a slide door set at the border between the dark box and the light box was opened. Due to the habits of the rats, once the rats entered into the dark box, the slide door was quickly closed. At three seconds after entering into the dark box, an electroconvulsive shock ([…], for 3 seconds) was given to the rats. The period between the time just after the slide door was opened and the time at which the rats entered into the dark box was measured as a step-through latency. […] On Day 2 of the experiment, the testing session was carried out about 24 hours after the training session. Thirty minutes prior to the testing session, MK-801 or a vehicle thereof, i.e., a physiological saline solution, was subcutaneously administered to the rats. The procedures of the testing session were carried out in the same manner to the training session except that no electroconvulsive shock was given. The step-through latency at the testing session was measured up to 300 seconds, and the step-through latency over 300 seconds was regarded as 300 seconds. […] The statistical analysis of the % of animals avoiding was done by x^2 test with Bonferroni's correction. The animals were used in a group of 10 to 25 animals per group, and the data was expressed by percentage.

In data set [2] the test system is memory/learning dysfunctions in the passive avoidance response. The data set is described as follows: Passive avoidance response test, drug administered alone without MK-801. In kind it is in vivo, Wistar male rats. The following applies: drug alone without MK-801, passive avoidance response, rats. Here is the method: Then, 10 seconds later, a slide door set at the border between the dark box and the light box was opened. Due to the habits of the rats, once the rats entered into the dark box, the slide door was quickly closed. At three seconds after entering into the dark box, an electroconvulsive shock ([…], for 3 seconds) was given to the rats. The period between the time just after the slide door was opened and the time at which the rats entered into the dark box was measured as a step-through latency. […] On Day 2 of the experiment, the testing session was carried out about 24 hours after the training session. […] The procedures of the testing session were carried out in the same manner to the training session except that no electroconvulsive shock was given. The step-through latency at the testing session was measured up to 300 seconds, and the step-through latency over 300 seconds was regarded as 300 seconds. […] The statistical analysis of the % of animals avoiding was done by x^2 test with Bonferroni's correction. The animals were used in a group of 10 to 25 animals per group, and the data was expressed by percentage.

Data set [3] relates to methamphetamine-induced hyperponesis. The settings on record: rats; reflects anti-psychotic activity; cited from earlier work.
The mark [4] stands for this setting: MK-801 prior to both training and testing sessions, MK-801 + drug 0.3 mg/kg p.o.
Setting [5] is: MK-801 prior to both training and testing sessions, MK-801 + drug 1 mg/kg p.o.
Where [6] appears, read: MK-801 prior to both training and testing sessions, MK-801 + drug 3 mg/kg p.o.
Setting [7] is: MK-801 prior to both training and testing sessions, MK-801 + drug 10 mg/kg p.o.
Where [8] appears, read: MK-801 administered in both training and testing sessions.
The mark [9] stands for this setting: MK-801 prior to both training and testing sessions, MK-801 + drug 0.1 mg/kg p.o.
Where [10] appears, read: MK-801 administered only in the training session.
[11] abbreviates: MK-801 prior to training session only, MK-801 + drug 3 mg/kg p.o.

Entries after “also recorded” stand apart in the source; their conditions may differ. Marks after values point to notes of the source that are not given here.

For `Cc1cc2c(s1)Nc1ccccc1N=C2N1CCN(C)CC1` [Olanzapine, olanzapine], the “% of animals avoiding” value in data set [1] (setting [4]) was found to be 15%; in data set [1] (setting [5]), 20%; in data set [1] (setting [6]), 20%; in data set [1] (setting [7]), 10%.

For `C[C@]12N[C@H](Cc3ccccc31)c1ccccc12` [MK-801], the “% of animals avoiding, group treated with MK-801” value in data set [1] (MK-801 0.05 mg/kg s.c. alone, administered prior to training session only) is 0%. The “step-through latency (in words)” value in data set [1] (MK-801 before training session and saline before testing session, compared with MK-801 in both sessions) was “nearly equal decrease in the step-through latency”.

With `Cc1nc2n(c(=O)c1CCN1CCC(c3noc4cc(F)ccc34)CC1)CCCC2` [Risperidone, risperidone], the “Minimum dose to induce memory dysfunction by single application” value (“Minimum dose” for short) in data set [2] is on record as 3 mg/kg, p.o. In data set [1] (setting [8]), the “drug efficacy on memory dysfunction (in words)” value (shortened to “drug efficacy”) is recorded as “memory/learning improving efficacy is recognized”. Also, the “% of animals avoiding” value in data set [1] (setting [9]) was determined as 20%; in data set [1] (setting [4]) it was 20%; in data set [1] (setting [5]), 28%; in data set [1] (setting [6]), 10%.

`Cl.Cl.c1cnc(N2CCNCC2)nc1` [1-PP, 1-(2-pyrimidyl)piperazine dihydrochloride]: the “drug efficacy” value was “memory/learning improving efficacy is recognized; also recorded: a significant improving activity was observed” in data set [1] (MK-801 administered in both training and testing sessions, dihydrochloride); “no drug efficacy” in data set [1] (setting [10]). Also, the results for the “% of animals avoiding” value in data set [1] (setting [5]), in data set [1] (setting [6]) and in data set [1] (setting [11]) were 47* %, 67* % and 8%, respectively.

Consider `O=C(CCCN1CCC(O)(c2ccc(Cl)cc2)CC1)c1ccc(F)cc1` [Haloperidol], for which, in data set [2], the “Minimum dose” value is given as 10 mg/kg, p.o. Besides, in data set [1] (setting [8]), the “drug efficacy” value is “no drug efficacy was observed”. In addition, the “% of animals avoiding” value stood at 0% in data set [1] (setting [9]), 5% in data set [1] (setting [4]), 15% in data set [1] (setting [5]) and 10% in data set [1] (setting [6]).

As to `OCCOCCN1CCN(C2=Nc3ccccc3Sc3ccccc32)CC1` [Quetiapine, quetiapine], the “dose to inhibit 50% of methamphetamine-induced hyperponesis (ED50)” value in data set [3] was “about 100 mg/kg, p.o”. Besides, in data set [2], the “Minimum dose” value is 30 mg/kg, p.o. Moreover, the “drug efficacy” value in data set [1] (setting [8]) is “memory/learning improving efficacy is recognized; also recorded: a significant improving activity was observed”. Further, the “% of animals avoiding” value is 10% in data set [1] (setting [4]), 20% in data set [1] (setting [5]), 30% in data set [1] (setting [6]) and 50* % in data set [1] (setting [7]).

For `COc1ccccc1N1CCN(CCN(C(=O)C2CCCCC2)c2ccccn2)CC1` [WAY-1000635], the “drug efficacy” value in data set [1] (MK-801 administered in both training and testing sessions, listed as WAY-100635) was “a significant improving activity was observed”; in data set [1] (MK-801 administered in both training and testing sessions, listed as serotonin 5-HT 1A receptor antagonist), “memory/learning improving efficacy is recognized”. Besides, the “% of animals avoiding” value is on record as 30% in data set [1] (setting [4]), 40* % in data set [1] (setting [5]) and 30% in data set [1] (setting [6]).

`O=C1CCc2ccc(OCCCCN3CCN(c4cccc(Cl)c4Cl)CC3)cc2N1` [Aripiprazole, aripiprazole]: the “Minimum dose” value in data set [2] is 10 mg/kg, p.o. The “drug efficacy” value in data set [1] (setting [8]) is given as “no drug efficacy was observed”. The “% of animals avoiding” value in data set [1] (setting [5]) and in data set [1] (setting [6]) was 16% each time.

On to `CN1CCN(C2=Nc3cc(Cl)ccc3Nc3ccccc32)CC1` [Clozapine, clozapine], for which the “Minimum dose” value in data set [2] is reported as 10 mg/kg, p.o. For the same compound, the “% of animals avoiding” value is given as 44* % in data set [1] (setting [4]), 36* % in data set [1] (setting [5]), 20% in data set [1] (setting [6]) and 10% in data set [1] (setting [7]).

As to `O=C1[C@@H]2[C@H]3CC[C@H](C3)[C@@H]2C(=O)N1C[C@@H]1CCCC[C@H]1CN1CCN(c2nsc3ccccc23)CC1` [Lurasidone, lurasidone], the “Minimum dose” value in data set [2] is >30 mg/kg, p.o. Further, the figures for the “drug efficacy” value in data set [1] (setting [8]) and in data set [1] (setting [10]) were “memory/learning improving efficacy is recognized; also recorded: a significant improving activity was observed” and “no drug efficacy”, respectively. For the same compound, the “% of animals avoiding” value in data set [1] (setting [4]) is on record as 40* %; in data set [1] (setting [5]), 35* %; in data set [1] (setting [6]), 75* %; in data set [1] (setting [7]), 70* %; in data set [1] (MK-801 prior to training session only, MK-801 + drug 0.3 mg/kg p.o.) it was 20%; in data set [1] (MK-801 prior to training session only, MK-801 + drug 1 mg/kg p.o.), 20%. The “% of animals avoiding” value in data set [1] (setting [11]) was 30%; in data set [1] (MK-801 prior to training session only, MK-801 + drug 10 mg/kg p.o.), 20%.

(Values after patent US8835438B2, “Method of treating memory/learning dysfunctions caused by schizophrenia with lurasidone” (Sumitomo Dainippon Pharma Co., Ltd., priority 2004, dated 2014).)
